# Where two headings read alike, the source gives them in different places.
# Legend:
# glioma U87 = experiment: In vitro cytotoxicity, Alamar blue assay, U87; assay type: cell-based, human
# Procedure: (§1) Prostate cancer PC3, non-small cell lung carcinoma cells H1299, and human glioma cells U87 were purchased from the American Type Culture Collection (Rockville, Md.). OECM-1 (human gingival squamous cell carcinoma cells) was obtained from Dr C.-L. Meng (National Defense Medical College, Taiwan).^22
# (§2) In preparation for in vitro cytotoxicity assays, cells were cultured at an initial density 2−5×10^4 cells per milliliter. They were maintained in a 5% CO2-humidified atmosphere at 37° C. in RPMI medium 1640 (GIBCO/BRL) containing penicillin (100 units/mL), streptomycin (100 μg/mL, GIBCO/BRL), and 5% heat-inactivated FBS. For cells grown in suspension (such as CCRF-CEM and its sublines), cytotoxicity was measured, by using XTT microculture method^23 in 96-well microtiter plates.
# (§3) The cytotoxic effects of the newly synthesized compounds were determined in T-cell acute lymphocytic leukemia (CCRF-CEM) and their resistant subcell lines (CCRF-CEM/Taxol and CCRF-CEM/VBL) by the XTT assay^24 and human solid tumor cells (i.e. breast carcinoma MX-1 and colon carcinoma HCT-116) by the SRB assay^25 in a 72 h incubation using a microplate spectrophotometer as described previously.^25 After the addition of phenazine methosulfate-XTT solution, incubated at 37° C. for 6 h and absorbance at 450 and 630 nm was detected on a microplate reader (EL 340). The cytotoxicity of the newly synthesized compounds against non-small cell lung carcinoma H1299, prostate cancer PC3, oral cancer OECM-1 and glioma U87 were determined by the Alamar blue assay^26 in a 72 h incubation using a microplate spectrophotometer as described previously. After the addition of alamar blue solution, it was incubated at 37° C. for 6 h. Absorbance at 570 and 600 nm was detected on a microplate reader. IC50 values were determined from dose-effect relationship at six or seven concentrations of each drug using the CompuSyn software by Chou and Martin^27 based on the median-effect principle and plot.^28,29 Ranges given for Cisplatin were mean±SE (n=4).
# CCRF-CEM/VBL = experiment: In vitro cytotoxicity, XTT assay, CCRF-CEM/VBL; assay type: cell-based, human; conditions: Table 5; for fold of cross-resistant vs IC50 of the parent cell line, CCRF-CEM/VBL: number in brackets; for IC50: vinblastine-resistant subline, XTT, 72 h, read-out: Cell Growth inhibition (IC50 μM) CCRF-CEM/VBL
# From the text: (§4) Human colon carcinoma HCT-116 cells and human prostate adenocarcinoma PC-3 cells were obtained from American Type Culture Collection (ATCC, Rockville, Md.). Human mammary carcinoma (MX-1) tumor cells were obtained from MSKCC cell bank. The CCRF-CEM human lymphoblastic leukemia cells and their vinblastine resistant subline (CCRF-CEM/VBL, 680-fold resistance in vitro) were obtained from Dr. William Beck of the University of Illinois, Chicago, and CCRF-CEM/Taxol (330-fold resistance in vitro). Resistant cells CCRF-CEM/taxol were produced by exposing the parent cells to increasing sublethal concentration (IC50-IC90) of paclitaxel for six months.
# as §2, §3
# breast carcinoma MX-1 = experiment: In vitro cytotoxicity, SRB assay, MX-1; assay type: cell-based, human
# From the text: as §4, §2, §3
# CCRF-CEM/Taxol = experiment: In vitro cytotoxicity, XTT assay, CCRF-CEM/Taxol; assay type: cell-based, human; conditions: Table 5; for IC50: Taxol-resistant subline, XTT, 72 h, read-out: Cell Growth inhibition (IC50 μM) CCRF-CEM/Taxol; for fold of cross-resistant vs IC50 of the parent cell line, CCRF-CEM/Taxol: number in brackets
# From the text: as §4, §2, §3
# [1] = system: non-small cell lung carcinoma H1299; experiment: In vitro cytotoxicity, Alamar blue assay, H1299; assay type: cell-based, human
# Procedure: as §1, §2, §3
# colon carcinoma HCT-116 = experiment: In vitro cytotoxicity, SRB assay, HCT-116; assay type: cell-based, human
# From the text: as §4, §2, §3
# [2] = system: human lymphoblastic leukemia (CCRF-CEM); experiment: In vitro cytotoxicity, XTT assay, CCRF-CEM; assay type: cell-based
# From the text: as §4, §2, §3
# oral cancer OECM-1 = experiment: In vitro cytotoxicity, Alamar blue assay, OECM-1; assay type: cell-based, human; conditions: Table 6, 72 h
# Procedure: as §1, §2, §3
# prostate cancer PC3 = experiment: In vitro cytotoxicity, Alamar blue assay, PC3; assay type: cell-based, human; conditions: Table 6, 72 h
# Procedure: as §1, §2, §3
# linearized pBR322DNA = experiment: DNA cross-linking, alkaline agarose gel shift assay; assay type: biochemical; conditions: 1, 10, and 20 μM; FIG. 8
# Procedure: Formation of DNA cross-linking was analyzed by alkaline agarose gel electrophoresis assay. […] The reaction mixture was incubated at 37° C. for 2 h. At the end of reaction, the plasmid DNA was linearized by digestion with BamHI and followed by precipitation with ethanol. The DNA pellets were dissolved and denatured in alkaline buffer (0.5 N NaOH-10 mM EDTA). An aliquot of 20 μL of DNA solution (1000 ng) was mixed with 4 μL of 6× alkaline loading dye and then electrophoretically resolved on a 0.8% alkaline agarose gel with NaOH-EDTA buffer at 4° C. The electrophoresis was carried out at 18 V for 22 h. After staining the gels with an ethidium bromide solution, the DNA was then visualized under UV light.
# [3] = Table 5, 72 h incubation, read-out: Cell Growth inhibition (IC50 μM) CCRF-CEM
# [4] = Homo sapiens, HCT-116, Table 7, 72 h
# [5] = Homo sapiens, CCRF-CEM, Table 7, 72 h, read-out: IC50 (μM) CCRF/CEM
SMILES,"IC50 (glioma U87; Table 6, 72 h) [µM]","fold of cross-resistant vs IC50 of the parent cell line, CCRF-CEM/VBL (CCRF-CEM/VBL) [×]",IC50 (CCRF-CEM/VBL) [µM],IC50 (CCRF-CEM/Taxol) [µM],"fold of cross-resistant vs IC50 of the parent cell line, CCRF-CEM/Taxol (CCRF-CEM/Taxol) [×]","IC50 ([1]; Table 6, 72 h) [µM]","IC50 [2, 3] [µM]",IC50 (oral cancer OECM-1) [µM],IC50 (prostate cancer PC3) [µM],melting point [°C],also measured
"CCNC(=O)OCc1c(COC(=O)NCC)c2sc3ccccc3n2c1-c1ccc(F)c(F)c1 [Compound 19d, (1-(3,4-Difluorophenyl)benzo[d]pyrrolo[2,1-b]thiazole-2,3-diyl)bis(methylene)bis(ethylcarbamate)]",38.5 ± 7.21,1.47,0.31 ± 0.002,0.34 ± 0.008,1.61,10.3 ± 1.11,0.21 ± 0.01,14.6 ± 3.39,19.3 ± 3.44,–,"IC50 (breast carcinoma MX-1; Table 6, 72 h): 1.49 ± 0.04 µM; IC50 (colon carcinoma HCT-116; Table 6, 72 h): 1.1 ± 0.015 µM"
"CCNC(=O)OCc1c(COC(=O)NCC)c2sc3ccccc3n2c1-c1ccc(OC)cc1 [Compound 19g, (1-(4-Methoxyphenyl)benzo[d]pyrrolo[2,1-b]thiazole-2,3-diyl)bis(methylene)bis(ethylcarbamate)]",29.5 ± 4.86,2.20,0.42 ± 0.003,0.37 ± 0.001,1.90,8.85 ± 1.53,0.19 ± 0.002,9.39 ± 1.9,17.9 ± 3.59,–,DNA interstrand cross-linking (linearized pBR322DNA): able to bind covalently (interstrand cross-linking) with DNA
"CC(C)NC(=O)OCc1c(COC(=O)NC(C)C)c2sc3ccccc3n2c1-c1ccc(F)c(F)c1 [Compound 20d, (1-(3,4-Difluorophenyl)benzo[d]pyrrolo[2,1-b]thiazole-2,3-diyl)bis(methylene)bis(iso-propylcarbamate)]",74.9 ± 15.7,0.90,0.3 ± 0.001,0.19 ± 0.004,0.57,30.8 ± 6.92,0.33 ± 0.001,15.1 ± 1.34,29.6 ± 1.83,–,"IC50 (breast carcinoma MX-1; Table 6, 72 h): 1 ± 0.002 µM; IC50 (colon carcinoma HCT-116; Table 6, 72 h): 0.41 ± 0.005 µM"
"Cn1c2c(c3ccccc31)Cc1c(CO)c(CO)c(-c3ccccc3)n1C2 [Compound 26b, (3-(phenyl)-6-methyl-6,11-dihydro-5H-indolizino[6,7-b]indole-1,2-diyl)dimethanol]",–,–,–,–,–,–,–,–,–,122 to 123,–
"Cn1c2c(c3ccccc31)Cc1c(CO)c(CO)c(-c3ccc(F)cc3)n1C2 [Compound 26c, (3-(4-Fluorophenyl)-6-methyl-6,11-dihydro-5H-indolizino[6,7-b]indole-1,2-diyl)dimethanol]",–,–,–,–,–,–,–,–,–,240 to 241,–
"Cn1c2c(c3ccccc31)Cc1c(CO)c(CO)c(-c3ccc(Cl)cc3)n1C2 [Compound 26d, (3-(4-Chlorophenyl)-6-methyl-6,11-dihydro-5H-indolizino[6,7-b]indole-1,2-diyl)-dimethanol]",–,–,–,–,–,–,–,–,–,238 to 239,"IC50 (breast carcinoma MX-1; Homo sapiens, Table 7, 72 h): 11.3 ± 0.42 µM; IC50 (colon carcinoma HCT-116; [4]): 13.49 ± 0.088 µM; IC50 [2, 5]: 4.58 ± 0.378 µM"
"Cn1c2c(c3ccccc31)Cc1c(CO)c(CO)c(-c3ccc(F)c(F)c3)n1C2 [Compound 26e, (3-(3,4-Difluorophenyl)-6-methyl-6,11-dihydro-5H-indolizino[6,7-b]indole-1,2-diyl)dimethanol]",–,–,–,–,–,–,–,–,–,195 to 196,–
"Cc1c(CO)c(CO)c2n1Cc1c(c3ccccc3n1C)C2 [Compound 33a, [3,6-Dimethyl-6,11-dihydro-5H-indolizino[6,7-b]indole-1,2-diyl]dimethanol]",–,–,–,–,–,–,–,–,–,200 to 201,"IC50 (glioma U87; Homo sapiens, Table 7, 72 h): 6.54 ± 2.16 µM; IC50 (breast carcinoma MX-1; Homo sapiens, Table 7, 72 h): 0.22 ± 0.019 µM; IC50 ([1]; Homo sapiens, NCI-H1299, Table 7, 72 h): 3.96 ± 1.79 µM; IC50 (colon carcinoma HCT-116; [4]): 0.12 ± 0.001 µM; IC50 [2, 5]: 0.042 ± 0.0003 µM"

# Source: US8703951B2, “Synthesis of 4H-benzo[D]pyrrolo[1,2-A]thiazoles and indolizino[6,7-b]indole derivatives and their use as antitumor therapeutic agents” (Academia Sinica, priority 2011, dated 2014)
